Here are results for eight compounds from patent publication US20200216417A1, “INHIBITORS OF FIBROBLAST ACTIVATION PROTEIN” (Praxis Biotech LLC, priority 2019, published 2020).

The target of series [1] is T1, recombinant human DPP9 (rhDPP9) (Homo sapiens, UniProt Q86TI2).
T1 construct: purchased R&S system / R&D systems (both sic) 5419-SE
Nature of the series: DPP9 inhibition assay, 10 ng rhDPP9, Tris-HCl/BSA buffer. The following applies: Table 3B. The format is biochemical.

The test system of series [2] is human AML cell line MV4-11. Nature of the series: Cytotoxicity assay in human leukemia cell lines (Cell-Titer Glo). The following applies: MV4-11, 48 h, read-out: MV4-11 viability IC50, μM.
Series [3] has as its target T2, recombinant human PREP (rhPREP) (Homo sapiens, UniProt P48147).
T2 sequence (P48147 1-710): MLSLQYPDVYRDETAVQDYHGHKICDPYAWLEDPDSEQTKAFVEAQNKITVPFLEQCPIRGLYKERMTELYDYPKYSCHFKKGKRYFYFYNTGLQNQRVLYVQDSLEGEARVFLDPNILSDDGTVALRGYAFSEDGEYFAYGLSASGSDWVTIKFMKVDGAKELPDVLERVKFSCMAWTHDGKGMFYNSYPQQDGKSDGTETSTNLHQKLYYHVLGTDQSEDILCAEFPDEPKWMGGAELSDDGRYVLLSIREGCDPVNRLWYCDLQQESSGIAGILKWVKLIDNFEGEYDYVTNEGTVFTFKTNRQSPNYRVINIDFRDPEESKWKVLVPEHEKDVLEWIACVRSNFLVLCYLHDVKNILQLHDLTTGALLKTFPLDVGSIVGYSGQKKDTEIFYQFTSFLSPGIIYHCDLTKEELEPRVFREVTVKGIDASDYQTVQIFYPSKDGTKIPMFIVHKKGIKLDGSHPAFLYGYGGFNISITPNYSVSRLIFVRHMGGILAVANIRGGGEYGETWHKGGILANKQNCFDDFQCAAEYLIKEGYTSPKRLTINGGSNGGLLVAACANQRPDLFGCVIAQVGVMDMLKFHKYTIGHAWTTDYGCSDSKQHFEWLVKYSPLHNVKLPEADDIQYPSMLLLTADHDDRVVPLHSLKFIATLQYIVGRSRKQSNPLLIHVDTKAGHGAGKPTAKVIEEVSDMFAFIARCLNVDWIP
Nature of the series: PREP enzymatic activity assay, Z-Gly-Pro-AMC. The format is biochemical. The following applies: Table 3B.

In series [4] the target is T3, recombinant human DPPIV (rhDPPIV) (Homo sapiens, UniProt P27487).
T3 construct: purchased R&S system (so in the source)
Nature of the series: DPPIV enzymatic activity assay, H-Gly-Pro-pNA. Particulars: Table 3B. The class given is biochemical.

The target of series [5] is T4, recombinant human FAPα (rhFAPα) (Homo sapiens, UniProt Q12884).
T4 construct: purchased R&S system (so in the source)
T4 sequence (Q12884 1-760): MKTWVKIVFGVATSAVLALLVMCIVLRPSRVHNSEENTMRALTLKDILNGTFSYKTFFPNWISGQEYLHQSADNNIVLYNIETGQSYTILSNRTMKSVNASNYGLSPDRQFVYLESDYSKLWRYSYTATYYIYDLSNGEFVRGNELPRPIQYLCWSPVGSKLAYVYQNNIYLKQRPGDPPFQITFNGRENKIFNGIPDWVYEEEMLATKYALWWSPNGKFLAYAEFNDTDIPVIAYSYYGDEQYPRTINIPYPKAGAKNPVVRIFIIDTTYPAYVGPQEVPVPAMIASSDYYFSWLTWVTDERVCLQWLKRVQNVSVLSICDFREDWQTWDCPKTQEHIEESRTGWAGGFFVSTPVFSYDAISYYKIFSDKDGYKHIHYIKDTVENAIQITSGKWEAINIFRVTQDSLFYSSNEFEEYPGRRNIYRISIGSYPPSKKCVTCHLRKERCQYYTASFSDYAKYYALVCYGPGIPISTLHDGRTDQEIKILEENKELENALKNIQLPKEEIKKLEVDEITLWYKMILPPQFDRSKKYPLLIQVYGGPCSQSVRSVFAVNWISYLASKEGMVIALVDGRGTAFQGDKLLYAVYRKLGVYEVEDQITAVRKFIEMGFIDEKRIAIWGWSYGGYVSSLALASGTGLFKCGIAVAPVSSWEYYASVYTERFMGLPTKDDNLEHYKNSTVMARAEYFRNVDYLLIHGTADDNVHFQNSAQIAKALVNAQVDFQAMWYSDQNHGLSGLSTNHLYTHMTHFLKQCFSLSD
Nature of the series: FAPα enzymatic exopeptidase (dipeptidase) activity assay, Z-Gly-Pro-AMC. The class given is biochemical. Particulars: for IC50: read-out: rhFAP IC50; for inhibition at 1 µM / rhFAPα (% exo inh @ 1 μM): exopeptidase inhibition at 1 μM test compound; for inhibition at 1 µM: read-out: rhFAPα % exo inh @ 1 μM.

Series [6] deals with T5, DPPIV (Mus musculus, UniProt P28843).
T5 construct: from tissue; host or cells: C57BL/6 mouse plasma (EDTA)
Nature of the series: DPPIV enzymatic activity in mouse plasma (H-Gly-Pro-AMC). The class given is biochemical, C57BL/6 mouse. The following applies: H-Gly-Pro-AMC substrate. Here is the method: Approximately 500 μL of whole blood from one C57BL/6 mouse was harvested into BD Microtainer® tubes (K2) EDTA (#365974, Becton Dickinson and Co.) via terminal cardiac puncture. The blood sample was immediately centrifuged at approximately 9000 g at 4° C. for 5 minutes. Plasma was separated and stored at −80° C. in aliquots of 300 μL. To assay baseline DPPIV enzymatic exopeptidase activity, 5 μL of thawed, mouse plasma was diluted (1:5) in buffer (100 mM Tris-HCl, 400 mM NaCl, 50 mM salicylic acid, 1 mM EDTA, pH 7.5) and mixed with 35 μL of the same buffer before being pre-incubated with different concentrations of 10 μL of test compounds or DMSO vehicle for 15 minutes at 37° C. in 96-well black plates (Nunc, #237108). After pre-incubation, 50 μL of 200 μM dipeptide substrate H-Gly-Pro-AMC (Bachem, # L-1225) was added to the mixture. The assay was performed for 1 hour at 37° C. 7-Amino-4-Methylcoumarin (AMC) release was detected measuring fluorescence at an excitation wavelength of 360 nm and an emission wavelength of 460 nm using a Multifunction Microplate Reader (Synergy 4, Biotek). All measurements were carried out at least in duplicate.

The conditions of series [7]: upon standing in pH 7.8; cyclization (Narra et al., 2007); cited from earlier work.

T1 sequence (Q86TI2 whole entry): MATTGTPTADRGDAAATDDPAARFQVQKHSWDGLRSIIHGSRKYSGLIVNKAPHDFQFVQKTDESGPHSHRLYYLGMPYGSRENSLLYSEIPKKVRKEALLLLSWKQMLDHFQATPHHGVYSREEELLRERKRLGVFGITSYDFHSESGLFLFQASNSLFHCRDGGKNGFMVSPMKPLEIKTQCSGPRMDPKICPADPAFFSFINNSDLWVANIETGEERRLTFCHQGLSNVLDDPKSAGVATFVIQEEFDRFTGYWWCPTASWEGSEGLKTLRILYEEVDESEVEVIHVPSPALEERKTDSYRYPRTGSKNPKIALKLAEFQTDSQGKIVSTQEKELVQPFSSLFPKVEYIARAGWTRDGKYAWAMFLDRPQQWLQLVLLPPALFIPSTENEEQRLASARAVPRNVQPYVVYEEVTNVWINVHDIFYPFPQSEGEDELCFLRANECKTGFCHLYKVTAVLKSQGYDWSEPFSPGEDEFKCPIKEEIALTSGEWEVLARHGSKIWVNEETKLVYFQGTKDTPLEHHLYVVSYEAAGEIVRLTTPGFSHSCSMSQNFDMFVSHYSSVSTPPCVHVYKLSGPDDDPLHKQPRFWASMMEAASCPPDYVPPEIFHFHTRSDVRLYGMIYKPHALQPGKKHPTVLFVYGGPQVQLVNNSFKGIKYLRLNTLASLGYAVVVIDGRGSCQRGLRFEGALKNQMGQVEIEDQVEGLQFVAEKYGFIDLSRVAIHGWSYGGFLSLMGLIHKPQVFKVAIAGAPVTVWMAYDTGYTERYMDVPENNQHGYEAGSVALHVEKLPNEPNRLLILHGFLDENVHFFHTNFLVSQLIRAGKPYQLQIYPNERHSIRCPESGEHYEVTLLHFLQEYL
T3 sequence (P27487 whole entry): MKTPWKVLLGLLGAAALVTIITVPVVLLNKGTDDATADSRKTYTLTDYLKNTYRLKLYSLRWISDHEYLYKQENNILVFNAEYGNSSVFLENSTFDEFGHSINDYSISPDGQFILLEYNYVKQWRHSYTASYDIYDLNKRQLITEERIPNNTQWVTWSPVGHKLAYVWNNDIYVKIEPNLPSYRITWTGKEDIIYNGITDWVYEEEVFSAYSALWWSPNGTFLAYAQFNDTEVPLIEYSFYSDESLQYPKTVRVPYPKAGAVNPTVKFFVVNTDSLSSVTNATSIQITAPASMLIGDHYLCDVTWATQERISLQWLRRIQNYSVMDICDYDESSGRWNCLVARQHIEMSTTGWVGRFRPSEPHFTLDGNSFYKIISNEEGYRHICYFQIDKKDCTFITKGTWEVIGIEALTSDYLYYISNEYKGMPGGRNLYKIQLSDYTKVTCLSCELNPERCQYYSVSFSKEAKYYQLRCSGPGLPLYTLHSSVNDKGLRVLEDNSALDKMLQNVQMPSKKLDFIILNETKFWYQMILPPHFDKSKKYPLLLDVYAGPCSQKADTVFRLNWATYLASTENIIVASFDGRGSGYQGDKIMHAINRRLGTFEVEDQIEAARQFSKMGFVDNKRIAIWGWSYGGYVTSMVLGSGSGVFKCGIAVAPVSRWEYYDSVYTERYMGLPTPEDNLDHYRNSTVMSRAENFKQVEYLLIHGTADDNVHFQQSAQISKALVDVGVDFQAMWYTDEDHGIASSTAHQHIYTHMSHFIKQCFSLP
T5 sequence (P28843 37-760 limits assumed): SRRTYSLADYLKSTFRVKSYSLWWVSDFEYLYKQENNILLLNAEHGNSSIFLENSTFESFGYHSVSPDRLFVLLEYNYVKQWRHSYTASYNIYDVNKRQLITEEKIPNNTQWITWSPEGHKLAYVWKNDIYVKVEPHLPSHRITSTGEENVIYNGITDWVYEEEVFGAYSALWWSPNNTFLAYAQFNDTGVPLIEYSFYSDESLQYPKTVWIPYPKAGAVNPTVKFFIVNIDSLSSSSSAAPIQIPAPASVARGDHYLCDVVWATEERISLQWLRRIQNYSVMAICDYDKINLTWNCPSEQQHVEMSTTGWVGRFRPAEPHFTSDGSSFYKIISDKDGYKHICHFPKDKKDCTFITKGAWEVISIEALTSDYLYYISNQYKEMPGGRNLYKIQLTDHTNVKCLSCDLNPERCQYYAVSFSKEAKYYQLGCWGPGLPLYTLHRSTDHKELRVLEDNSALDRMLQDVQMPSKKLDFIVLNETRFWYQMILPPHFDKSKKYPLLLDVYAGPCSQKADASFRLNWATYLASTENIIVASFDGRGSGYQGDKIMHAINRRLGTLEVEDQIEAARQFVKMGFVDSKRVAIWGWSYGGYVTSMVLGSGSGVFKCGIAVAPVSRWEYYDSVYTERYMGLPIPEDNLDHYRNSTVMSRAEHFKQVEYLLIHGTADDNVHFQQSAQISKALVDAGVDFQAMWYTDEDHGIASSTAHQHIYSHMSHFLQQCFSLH

In general, IC50 refers to the concentration that gives 50% inhibition. Regarding `N#C[C@@H]1CC(F)(F)CN1C(=O)CNC(=O)c1ccnc2ccc(/C=C/c3ccc(C(F)(F)F)nc3)cc12` [Compound 46], the IC50 in series [1] is less than 1 µM; in series [2] it was less than 3 µM; in series [3], greater than 10 µM; in series [4], greater than 10 µM; in series [5] (Table 3B), less than 1 µM. Besides, in series [5] (Table 3B), the inhibition at 1 µM was greater than 50%.
With `COc1ccc(/C=C/c2ccc3nccc(C(=O)NCC(=O)N4CC(F)(F)C[C@H]4C#N)c3c2)cc1` [Compound 47], the IC50 in series [1] was less than 1 µM; in series [2], 3 to 10 µM; in series [3], greater than 10 µM; in series [4] it was greater than 10 µM; in series [5] (Table 3B) it was less than 1 µM. The inhibition at 1 µM in series [5] (Table 3B) was greater than 50%.
`N#C[C@@H]1CC(F)(F)CN1C(=O)CNC(=O)c1ccnc2ccc(/C=C/c3ccc(O)nc3)cc12` [Compound 139]: the 50% inhibitory concentration (IC50) in series [1] was less than 1 µM; in series [2], greater than 10 µM; in series [3] it was greater than 10 µM; in series [4], greater than 10 µM; in series [5] (Table 3B), less than 1 µM. Further, the inhibition at 1 µM in series [5] (Table 3B) is greater than 50%.
As for `Cc1cc(/C=C/c2ccc3nccc(C(=O)NCC(=O)N4CC(F)(F)C[C@H]4C#N)c3c2)ccn1` [Compound 192], the IC50 in series [1] was less than 1 µM; in series [2], less than 3 µM; in series [3] it was greater than 10 µM; in series [4], 1 to 10 µM; in series [5] (Table 3B), less than 1 µM. Also, the inhibition at 1 µM in series [5] (Table 3B) is greater than 50%.
For `COc1cc(/C=C/c2ccc3nccc(C(=O)NCC(=O)N4CC(F)(F)C[C@H]4C#N)c3c2)ccn1` [Compound 193], the IC50 was less than 1 µM in series [1]; less than 3 µM in series [2]; greater than 10 µM in series [3]; greater than 10 µM in series [4]; less than 1 µM in series [5] (Table 3B). For the same compound, the inhibition at 1 µM in series [5] (Table 3B) is greater than 50%.
`N#C[C@@H]1CC(F)(F)CN1C(=O)CNC(=O)c1ccnc2ccc(/C=C/c3ccnc(C(F)(F)F)c3)cc12` [Compound 194]: the half-inhibitory concentration (IC50) in series [1] is less than 1 µM; in series [2], less than 3 µM; in series [3] it was greater than 10 µM; in series [4], 1 to 10 µM; in series [5] (Table 3B) it was less than 1 µM. The inhibition at 1 µM in series [5] (Table 3B) was greater than 50%.
Turning to `N#CC1CC(F)(F)CN1C(=O)CNC(=O)c1ccnc2ccccc12` (centres unmarked) [Ref. Comp., reference compound], the IC50 in series [6] is less than 10 µM. Moreover, the “rhFAPα (% exo inh @ 1 μM)” value in series [5] (Table 2) and in series [5] (Table 3B) was “+++ (+++ refers to >50% inhibition at 1 μM test compound)” throughout.
For `CC(C)[C@H](N)C(=O)N1CCC[C@H]1B(O)O` [Val-boroPro, reference compound], in series [2], the half-inhibitory concentration (IC50) was less than 3 µM. Also, in series [7], the “stability of protease inhibitory activity” value was “rapidly loses protease inhibitory activity”.
